Target: T1, PHD2 (Homo sapiens, UniProt Q9GZT9)
T1 construct: PHD2_181–426 (hereafter PHD2); His6 (N, cleaved yes); made in house; host or cells: bacterial culture (2x TY, kanamycin, IPTG)
Test: Denaturing ESI-MS of crosslinking with PHD2
Format: binding
Protocol: In contrast to the likely imine adducts formed with 1/2, the PHD2·Fe·3 covalent adduct was stable to the acidic conditions of denaturing MS. […] The crosslinking could be fitted by a one-site decay function (R^2 = 0.99, GraphPad Prism), consistent with a quasi intramolecular reaction of the PHD2·Fe·3 non-covalent species to give a covalent adduct (Fig. S5, ESI ^†).
Fig. S7 Time-course analysis of crosslinking between PHD2 and 3. PHD2 (20 µM) was incubated (37 °C, 4 h) with FeSO4 (20 µM) and 3 (30 µM). Samples were taken at regular intervals, quenched by acidification and the ratio of covalent crosslinking analysed by ESI-MS under denaturing conditions. Above: overlaid deconvoluted mass spectra; Below: variation of crosslinking with time. Data represent mean intensities of repeats (n=3), error bars show 1 standard […]
Fig. S8 Temperature dependence of the rate of crosslinking of 3 with PHD2. PHD2 (20 µM) was incubated with equimolar Fe(II) and 3 in buffer (50 mM Tris, 150 mM NaCl, pH 7.5) at 4, 20 and 37 °C. The ratio of crosslinking after 1, 2, and 4 h was determined by ESI-MS under denaturing conditions (n = 2), error bars represent 1 standard deviation.
Fig. S9 Ratio of crosslinked PHD2.3 before evaluation of catalytic activity.
100 μM. FeSO4·7H2O was dissolved in 20 mM HCl at a concentration of 100 mM. This solution was then diluted with MilliQ purified water to give a final working concentration of 100 μM. The protein was mixed with the Fe(II) solution and the inhibitor solution to give final concentrations of 20 μM PHD2, 20 μM Fe(II), and 20 μM inhibitor. The resultant solution was incubated for the appropriate time (specified in the text) at 37 […]
(5 min or 20 min) at 37 °C. After incubation, the samples were immediately analysed by ESI-MS.
1.1.2 Denaturing mass spectrometry
Intact protein masses were obtaine by liquid chromatography-mass spectrometry (LC-MS) using a Waters LCT premier XE time-of-flight mass spectrometer interfaced with a Waters 1525u HPLC pump and Waters […]
The protein sample (10 µM, 5 µl) was injected onto a Chromolith FastGradient RP-18 2x50mm Monolithic reverse phase HPLC column and eluted at 0.4 ml.min-1 using a gradient system from Solvent A (water, 0.1 % (v/v) formic acid) to Solvent B (acetonitrile, 0.1 % (v/v) formic acid) according to the following conditions:
Time (Min) %A %B Flow Rate (ml.min-1)
The eluent was transferred directly to the mass spectrometer. The following MS parameters were used:
Capillary voltage – 3,000 V; Sample cone voltage – 50 V; Extraction cone voltage – 1V; Desolvation temperature – 250 °C; Source temperature – 100 °C; Cone gas flow – 100 l.hour-1; Desolvation gas flow (N2) – 830 l.hour-1. Data were processed with MassLynx™ v4.0 (Waters) and protein peaks were deconvoluted using the Maximum Entropy method (MaxEnt1).
1.1.3 Analysis of protein activity by peptide turnover assay using MALDI-MS detection2 PHD2 (20 µM), Fe(II) (20 µM) and the inhibitor (30 µM) in buffer (15 mM ammonium acetate, pH 7.5) were incubated for the appropriate time (specified in the text) at 37 °C. Subsequently, the enzyme (1.5 µL, final […]
ascorbate (1 mM), 2-oxoglutarate (100 µM) and the respective inhibitor (30 µM) in buffer (50 mM Tris, 150 mM NaCl). In the positive control no inhibitor was added. The resultant mixture was incubated at 37 °C and samples ([…]) were taken at regular intervals and quenched by addition of 1% (v/v) aqueous formic acid ([…]). Samples were analysed using a MALDI micro MX mass spectrometer (Waters) in the reflectron positive ion mode. Data were processed using MassLynx v4.0. The yield of crosslinking was determined by comparison of the signal intensities for crosslinked and unmodified protein.
1.1.4 Analysis of protein activity by peptide turnover assay using the AlphaScreen™ 3 The assay consisted of three parts: pre-incubation with inhibitor, the PHD2 hydroxylation reaction, and incubation with the AlphaScreen™ bead mix.

T1 sequence (Q9GZT9 181-426): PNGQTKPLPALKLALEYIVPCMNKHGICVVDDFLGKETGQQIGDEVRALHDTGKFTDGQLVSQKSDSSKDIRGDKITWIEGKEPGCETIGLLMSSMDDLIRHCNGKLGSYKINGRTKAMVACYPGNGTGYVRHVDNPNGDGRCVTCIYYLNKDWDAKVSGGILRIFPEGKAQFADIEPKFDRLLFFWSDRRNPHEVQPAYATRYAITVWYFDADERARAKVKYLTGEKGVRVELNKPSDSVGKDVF

SMILES: C=CC(=O)Nc1cccc(C(=O)NCC(=O)O)c1O [compound 3]
- conversion to crosslinked adduct at 4 °C (4 °C): little conversion
- extent of crosslinking, 0 h pre-incubation (PHD2 pre-incubated with compound 0 h): 0%
- extent of crosslinking, 1 h pre-incubation (PHD2 pre-incubated with compound 1 h): 50%
- extent of crosslinking, 2 h pre-incubation (PHD2 pre-incubated with compound 2 h): 66%
- extent of crosslinking, 4 h pre-incubation (PHD2 pre-incubated with compound 4 h): 90%
- conversion to crosslinked PHD2·Fe·3 after 3 h (timecourse, 37 °C, 3 h, PHD2 20 µM, FeSO4 20 µM, compound 30 µM): near complete conversion
